Here are results for seven compounds from patent publication US4393058A, “Cephalosporin compounds” (Meiji Seika Kaisha, Ltd., priority 1979, dated 1983).

≈ marks a conversion by molar mass, not a printed value. Structures can show the parent of a compound that is named as a salt.

Data set [1] deals with Staphylococcus aereus 209PJC-1. The data set is described as follows: Minimum Inhibitory Concentration by Agar Plate Dilution Method. The note with it: 209PJC1. Format: cell-based.
For data set [2], the system named is Staphylococcus aereus Smith S-424. The data set is described as above. The note with it: SMITHS424. Type of data set: cell-based.
Data set [3] deals with Bacillus anthracis No. 119. The data set is described as follows: microbe, parasite or virus in culture. Type of data set: cell-based. The note with it: NO.119, read-out: Minimum Inhibitory Concentration.
For data set [4], the system named is Escherichia coli GN 206 (CSase). The data set is described as follows: Minimum Inhibitory Concentration by Agar Plate Dilution Method. Format: cell-based. The note with it: GN206.
Data set [5] has as its system Citrobacter freundii GN 346 (CSase). The description is as above. The note with it: GN346. Format: cell-based.
Data set [6] concerns Klebsiella pneumoniae GN 69 (PCase). Described as above. The note with it: GN69. Type of data set: cell-based.
Data set [7] has as its system Proteus morganii 1510 (CSase). The data set is described as above. Format: cell-based. The note with it: Morganella morganii.
The subject of data set [8] is Proteus rettgeri GN 624 (CSase). Described as above. The note with it: Providencia rettgeri, GN624. Format: cell-based.
Data set [9] relates to Proteus vulgaris OX 19. The data set is described as above. Format: cell-based. The note with it: OX19.
Data set [10] concerns Serratia marcescens No. 1. The description is as above. Format: cell-based.
For data set [11], the system named is Serratia species GN 629 (CSase). The description is as above. Type of data set: cell-based. The note with it: GN629.
The test system of data set [12] is Pseudomonas aeruginosa IAM-1007. The data set is described as above. The note with it: IAM1007. Format: cell-based.
The subject of data set [13] is Pseudomonas aeruginosa M-0025. Described as above. Type of data set: cell-based. The note with it: M0025.
For data set [14], the system named is Pseudomonas cepacia M-0527. The description is as above. Type of data set: cell-based. The note with it: Burkholderia cepacia, M0527.
Data set [15] deals with Pseudomonas cepacia TMS 199, KM 425. The data set is described as above. Type of data set: cell-based. The note with it: Burkholderia cepacia.
Data set [16] has as its system Maltophilia 604. The description is as above. Format: cell-based.
Data set [17] deals with mice. The data set is described as follows: Acute toxicity, intraperitoneal administration to mice. Type of data set: in vivo. The note with it: six mice, intraperitoneally 1,000 mg/kg. How it is done: The toxicity of the compounds according to this invention is very low. None of the six mice administered intraperitoneally 1,000 mg/kg of the compound of Example 2 died. Therefore, the compounds of this invention have very low toxicity. In addition, they have a wide antibacterial spectrum and are very effective in treating infectious diseases, as compared with the conventional cephalosporin series antibiotics such as cephalotin, cefazolin, cephalexin and cephaloridine.

In data set [18] the test system is Gram-positive and Gram-negative bacteria, including Pseudomonas aeruginosa. The note with it: conventional cephalosporin series antibiotics; cited from earlier work.

As to `COc1ccc(-c2ccc(C(=O)N[C@@H](C(=O)NC3C(=O)N4C(C(=O)O)=C(CSc5nnnn5C)CSC34)c3ccc(O)cc3)c(=O)[nH]2)cc1OC` (single isomer, unassigned) [Example 2, sodium salt of 7-{D(-)-α-[6-(3,4-dimethoxyphenyl)-1,2-dihydro-2-oxopyridine-3-carbonylamino]-p-hydroxyphenylacetamido}-3-(1-methyl-1,2,3,4-tetrazol-5-ylthiomethyl)-3-cephem-4-carboxylic acid], the MIC in data set [1] was determined as 0.78 µg/mL; in data set [2], 0.78 µg/mL; in [3] it was 1.56 µg/mL; in data set [4] it was 3.13 µg/mL; in data set [5] it was 3.13 µg/mL; in [6], 12.5 µg/mL. For the same compound, the MIC in data set [7] turned out to be 25 µg/mL; in data set [8] it was 12.5 µg/mL; in [9] it was 0.78 µg/mL; in data set [10], 3.13 µg/mL; in data set [11], 12.5 µg/mL; in data set [12] it was 6.25 µg/mL. The MIC in data set [13] came to 3.13 µg/mL; in data set [14], 6.25 µg/mL; in [15], 6.25 µg/mL; in [16] it was 6.25 µg/mL. Moreover, in data set [17], the mice that died result is “None”.

Turning to `COc1ccc(COc2ccc(-c3ccc(C(=O)N[C@@H](C(=O)NC4C(=O)N5C(C(=O)O)=C(CSc6nnnn6C)CSC45)c4ccc(O)cc4)c(=O)[nH]3)cc2OC)cc1OC` (single isomer, unassigned) [Example 5, sodium salt of 7-{D(-)-α-[6-[4-(3,4-dimethoxybenzyloxy)-3-methoxyphenyl]-1,2-dihydro-2-oxopyridine-3-carbonylamino]-p-hydroxyphenylacetamido}-3-(1-methyl-1,2,3,4-tetrazol-5-ylthiomethyl)-3-cephem-4-carboxylic acid], the MIC in data set [1] is 0.78 µg/mL; in [2], 0.78 µg/mL; in data set [3], 0.2 µg/mL; in [4] it was 0.2 µg/mL; in data set [5] it was 0.78 µg/mL; in data set [6], 6.25 µg/mL. Moreover, the MIC was determined as 12.5 µg/mL in data set [7]; 3.13 µg/mL in data set [8]; 0.39 µg/mL in data set [9]; 3.13 µg/mL in data set [10]; 12.5 µg/mL in [11]; 12.5 µg/mL in [12]. For the same compound, the MIC in data set [13] came to 3.13 µg/mL; in [14] it was 6.25 µg/mL; in data set [15], 6.25 µg/mL; in data set [16] it was 12.5 µg/mL.

`CC(=O)OCC1=C(C(=O)O)N2C(=O)[C@@H](NC(=O)Cc3cccs3)[C@H]2SC1` [cephalotin]: in data set [18], the “control of Gram-negative bacilli typified by Pseudomonas aeruginosa” value (from here on “control”) was “cannot be controlled”.

As for `CC1=C(C(=O)O)N2C(=O)[C@@H](NC(=O)[C@H](N)c3ccccc3)[C@H]2SC1` [cephalexin], in data set [18], the “control” value is recorded as “cannot be controlled”.

Take `CCN1CCN(C(=O)N[C@@H](C(=O)N[C@@H]2C(=O)N3[C@@H]2SC(C)(C)[C@@H]3C(=O)O)c2ccccc2)C(=O)C1=O` [Example T-1220, piperacillin, reference compound]: the MIC in data set [1] came to 0.78 µg/mL (≈ 1.51 µM); in data set [2], 1.56 µg/mL (≈ 3.01 µM); in [3], 0.78 µg/mL (≈ 1.51 µM); in data set [4], 25 µg/mL (≈ 48.3 µM); in data set [5], 100 µg/mL (≈ 193 µM); in data set [6] it was 50 µg/mL (≈ 96.6 µM). Further, the MIC was 50 µg/mL (≈ 96.6 µM) in data set [7]; 0.78 µg/mL (≈ 1.51 µM) in data set [8]; 1.56 µg/mL (≈ 3.01 µM) in [9]; 1.56 µg/mL (≈ 3.01 µM) in data set [10]; 25 µg/mL (≈ 48.3 µM) in data set [11]; 12.5 µg/mL (≈ 24.2 µM) in data set [12]. The MIC is 6.25 µg/mL (≈ 12.1 µM) in data set [13], 1.56 µg/mL (≈ 3.01 µM) in data set [14] and 200 µg/mL (≈ 386 µM) in data set [16].

As to `Cc1nnc(SCC2=C(C(=O)O)N3C(=O)[C@@H](NC(=O)Cn4cnnn4)[C@H]3SC2)s1` [cefazolin], in data set [18], the “control” value is on record as “cannot be controlled”.

Turning to `O=C(Cc1cccs1)N[C@@H]1C(=O)N2C(C(=O)[O-])=C(C[n+]3ccccc3)CS[C@H]12` [cephaloridine], the “control” value in [18] is listed as “cannot be controlled”.
